Experimental findings from patent US8765783B2, “Pharmaceutical composition for treatment of disease due to vascular constriction or vasodilation” (Ono Pharmaceuticals Co., Ltd., priority 2002, dated 2014) are described below.

For one assay, the system named is SD rat. In words: Increase of rat blood pressure by S1P. The format is in vivo. To be noted: anesthetized male SD rat, intraperitoneally injected. How it is done:
Male SD Rat (8 weeks old-10 weeks old) was anesthetized by injection of pentobarbital sodium (50 mg/mL/kg), after midline incision in the cervical region, trachea was exposed by exfoliation of tracheal muscle layer and cannula made of polyethylene was inserted into trachea. Next, catheter made of polyethylene was inserted into the common carotid artery and the common jugular vein. Catheter inserted into the common carotid artery was connected to the piezotransducer and the blood pressure was recorded on the recorder through strain compression amplifier. After the above mentioned operation was finished, in the case of the spinal chord was broken, the spinal chord was broken by insertion of stainless pole into the spinal chord cavity. After the spinal chord was broken, tracheal cannula was immediately connected into the artificial breathing device for small animals and artificial ventilation was performed under the conditions of a ventilatory volume 6 mL/kg and velocity 60 times/min. After then, S1P was administered and we confirmed blood pressure was increased. […] As a result, the compound (3) inhibited the increase of blood pressure by S1P.

A further assay relates to SHR rat. In words: Blood pressure of SHR rat. It is filed as in vivo. To be noted: 1 mg/kg, 3 mg/kg and 10 mg/kg, i.v.; SHR rat under the awakening. From the text: Rat (SHR/Crj, male, Charles River Japan Inc., 12 weeks old-13 weeks old) was anesthetized by ether, and then rat was fixed in the dorsal position on the laboratory table. Cannula filled with physiologic saline containing heparin was inserted into the femoral artery and cannula filled with physiologic saline was inserted into the femoral vein, respectively. After finish of the operation, rat was fixed in the ballmancage and left at rest until the awakening. The artery cannula was connected to the piezotransducer (DX-100, Nihon Kohden) and the blood pressure was measured through strain compression amplifier(AP-601G, Nihon Kohden). After about 30 minutes from confirming awakening of rat, the blood pressure was measured for additional 30 minutes and then, the compound (3) (1 mg/kg, 3 mg/kg, and 10 mg/kg, i.v.) or vehicle (10% DMSO/plasma) was administered intravenously. After administration, blood pressure was measured for more than 30 minutes. […] In contrast, the compound (3) had little effect on the heart rate.

Assay [1] deals with removed rabbit coronary artery. In words: Vasoconstrictor action of removed rabbit coronary artery. Conditions: removed rabbit coronary artery ring. The procedure:
The heart was removed from Male rabbit (NZ White, a bout 2 kg) under anesthesia and immersed into cooled Krebs-Henseleit solution. After that, coronary artery was cut out, heart muscle and fat tissue connected around the heart were removed and ringed samples were made. Samples hung in micro tissue organ bath (MTOB-1: Preimetech Corp.) filled with Krebs-Henseleit solution (37° C.) or magnus tube, they were loaded with about 0.2 g-0.5 g resting tension stabilized for about 60 minutes, and then constrictive movement was recorded on a recorder (linearcoda WR3320: Graphtec Corp.) through strain compression amplifier (AP-601G, Nihon Kohden).

Turning to `Cc1nn(C)c2nc(NNC(=O)Nc3cc(Cl)nc(Cl)c3)cc(C(C)C)c12` [compound (3), N-(2,6-dichloro-4-piridinyl)-2-(4-isopropyl-1,3-dimethyl-1H-pyrazolo[3,4-b]pyridin-6-yl)hydrazinecarboxamide], the “inhibition of the increase of blood pressure by S1P” value in the assay with SD rat is given as “inhibited”. Moreover, the “antihypertensive effect on SHR rat blood pressure” value in the assay on SHR rat is listed as “antihypertensive effect”. Further, the “inhibitory activity on constriction of rabbit coronary artery by S1P” value in assay [1] is given as “inhibitory activity”.
